In ChEMBL document CHEMBL4602641, “Discovery of novel pyrrolo[2,3-b]pyridine derivatives bearing 4-oxoquinoline moiety as potential antitumor inhibitor” (Bioorg Med Chem Lett, 2020):
Active and inactive are the calls of the source. The calls are words filed in the database; no cut-off is given here.

Columns and labels:
A549 [1] = assay: Antiproliferative activity against human A549 cells assessed as cell growth inhibition measured after 72 hrs by MTT assay; settings: A549, 72 h
HepG2 [2] = assay: Antiproliferative activity against human HepG2 cells assessed as cell growth inhibition measured after 72 hrs by MTT assay; settings: HepG2, 72 h
[3] = molecular target: Hepatocyte growth factor receptor (Homo sapiens, UniProt P08581); assay: Inhibition of c-Met (unknown origin) by caliper mobility shift assay
Hepatocyte growth factor receptor, sequence (P08581 whole entry): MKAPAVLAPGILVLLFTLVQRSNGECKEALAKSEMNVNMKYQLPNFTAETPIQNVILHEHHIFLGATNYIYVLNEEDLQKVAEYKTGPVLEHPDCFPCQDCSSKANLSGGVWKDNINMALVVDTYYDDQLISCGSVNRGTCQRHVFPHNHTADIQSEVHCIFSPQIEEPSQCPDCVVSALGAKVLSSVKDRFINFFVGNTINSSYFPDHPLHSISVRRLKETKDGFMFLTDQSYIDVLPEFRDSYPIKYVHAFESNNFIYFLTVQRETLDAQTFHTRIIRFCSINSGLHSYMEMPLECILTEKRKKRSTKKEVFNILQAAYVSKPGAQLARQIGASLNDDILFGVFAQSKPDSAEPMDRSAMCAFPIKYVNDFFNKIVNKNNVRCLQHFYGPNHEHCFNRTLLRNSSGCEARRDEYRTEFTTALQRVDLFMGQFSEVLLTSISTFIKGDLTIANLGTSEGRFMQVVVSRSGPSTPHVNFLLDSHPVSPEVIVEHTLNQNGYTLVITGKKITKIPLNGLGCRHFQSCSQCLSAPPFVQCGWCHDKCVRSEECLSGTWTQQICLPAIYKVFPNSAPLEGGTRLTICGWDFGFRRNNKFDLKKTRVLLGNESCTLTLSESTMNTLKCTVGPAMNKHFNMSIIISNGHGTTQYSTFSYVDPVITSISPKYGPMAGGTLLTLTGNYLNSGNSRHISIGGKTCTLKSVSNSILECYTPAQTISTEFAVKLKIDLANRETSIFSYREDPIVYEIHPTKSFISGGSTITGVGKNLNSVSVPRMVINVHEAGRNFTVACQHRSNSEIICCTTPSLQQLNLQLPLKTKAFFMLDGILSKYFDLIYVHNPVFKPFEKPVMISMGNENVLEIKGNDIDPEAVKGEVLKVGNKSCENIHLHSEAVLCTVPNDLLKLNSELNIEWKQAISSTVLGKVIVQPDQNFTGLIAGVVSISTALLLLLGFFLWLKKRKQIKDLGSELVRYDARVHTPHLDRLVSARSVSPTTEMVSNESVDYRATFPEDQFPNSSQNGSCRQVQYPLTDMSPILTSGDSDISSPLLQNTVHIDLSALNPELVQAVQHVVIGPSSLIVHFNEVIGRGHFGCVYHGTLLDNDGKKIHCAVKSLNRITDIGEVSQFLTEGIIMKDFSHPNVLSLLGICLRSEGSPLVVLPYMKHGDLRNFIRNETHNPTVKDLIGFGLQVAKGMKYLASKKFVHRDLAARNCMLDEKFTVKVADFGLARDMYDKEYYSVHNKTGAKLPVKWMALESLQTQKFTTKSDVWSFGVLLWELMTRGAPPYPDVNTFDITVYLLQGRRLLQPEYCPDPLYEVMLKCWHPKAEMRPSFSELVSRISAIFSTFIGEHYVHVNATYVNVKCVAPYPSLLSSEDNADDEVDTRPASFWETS

MCF7 = assay: Antiproliferative activity against human MCF7 cells assessed as cell growth inhibition measured after 72 hrs by MTT assay; settings: MCF7, 72 h
HepG2 [4] = assay: Induction of apoptosis in human HepG2 cells assessed as abnormal cell morphology at 0.24 uM by acridine orange staining based fluorescence microscopy; type: functional
HepG2 [5] = assay: Induction of apoptosis in human HepG2 cells assessed as decomposed nucleus at 0.24 uM by acridine orange staining based fluorescence microscopy; type: functional, cell-based
HepG2 [6] = assay: Induction of apoptosis in human HepG2 cells assessed as dispersed nucleus at 0.24 uM by acridine orange staining based fluorescence microscopy; type: functional, cell-based
HepG2 [7] = assay: Induction of apoptosis in human HepG2 cells assessed as concentrated chromatin at 0.24 uM by acridine orange staining based fluorescence microscopy; type: functional, cell-based
[8] = molecular target: Mast/stem cell growth factor receptor Kit (Homo sapiens, UniProt P10721); assay: Inhibition of c-Kit (unknown origin) by enzymatic assay
[9] = molecular target: Vascular endothelial growth factor receptor 2 (Homo sapiens, UniProt P35968); assay: Inhibition of VEGFR2 (unknown origin) by enzymatic assay
[10] = molecular target: Platelet-derived growth factor receptor beta (Homo sapiens, UniProt P09619); assay: Inhibition of PDGFRbeta (unknown origin) by enzymatic assay
[11] = molecular target: ALK tyrosine kinase receptor (Homo sapiens, UniProt Q9UM73); assay: Inhibition of ALK (unknown origin) by enzymatic assay
ALK tyrosine kinase receptor, sequence (Q9UM73 whole entry): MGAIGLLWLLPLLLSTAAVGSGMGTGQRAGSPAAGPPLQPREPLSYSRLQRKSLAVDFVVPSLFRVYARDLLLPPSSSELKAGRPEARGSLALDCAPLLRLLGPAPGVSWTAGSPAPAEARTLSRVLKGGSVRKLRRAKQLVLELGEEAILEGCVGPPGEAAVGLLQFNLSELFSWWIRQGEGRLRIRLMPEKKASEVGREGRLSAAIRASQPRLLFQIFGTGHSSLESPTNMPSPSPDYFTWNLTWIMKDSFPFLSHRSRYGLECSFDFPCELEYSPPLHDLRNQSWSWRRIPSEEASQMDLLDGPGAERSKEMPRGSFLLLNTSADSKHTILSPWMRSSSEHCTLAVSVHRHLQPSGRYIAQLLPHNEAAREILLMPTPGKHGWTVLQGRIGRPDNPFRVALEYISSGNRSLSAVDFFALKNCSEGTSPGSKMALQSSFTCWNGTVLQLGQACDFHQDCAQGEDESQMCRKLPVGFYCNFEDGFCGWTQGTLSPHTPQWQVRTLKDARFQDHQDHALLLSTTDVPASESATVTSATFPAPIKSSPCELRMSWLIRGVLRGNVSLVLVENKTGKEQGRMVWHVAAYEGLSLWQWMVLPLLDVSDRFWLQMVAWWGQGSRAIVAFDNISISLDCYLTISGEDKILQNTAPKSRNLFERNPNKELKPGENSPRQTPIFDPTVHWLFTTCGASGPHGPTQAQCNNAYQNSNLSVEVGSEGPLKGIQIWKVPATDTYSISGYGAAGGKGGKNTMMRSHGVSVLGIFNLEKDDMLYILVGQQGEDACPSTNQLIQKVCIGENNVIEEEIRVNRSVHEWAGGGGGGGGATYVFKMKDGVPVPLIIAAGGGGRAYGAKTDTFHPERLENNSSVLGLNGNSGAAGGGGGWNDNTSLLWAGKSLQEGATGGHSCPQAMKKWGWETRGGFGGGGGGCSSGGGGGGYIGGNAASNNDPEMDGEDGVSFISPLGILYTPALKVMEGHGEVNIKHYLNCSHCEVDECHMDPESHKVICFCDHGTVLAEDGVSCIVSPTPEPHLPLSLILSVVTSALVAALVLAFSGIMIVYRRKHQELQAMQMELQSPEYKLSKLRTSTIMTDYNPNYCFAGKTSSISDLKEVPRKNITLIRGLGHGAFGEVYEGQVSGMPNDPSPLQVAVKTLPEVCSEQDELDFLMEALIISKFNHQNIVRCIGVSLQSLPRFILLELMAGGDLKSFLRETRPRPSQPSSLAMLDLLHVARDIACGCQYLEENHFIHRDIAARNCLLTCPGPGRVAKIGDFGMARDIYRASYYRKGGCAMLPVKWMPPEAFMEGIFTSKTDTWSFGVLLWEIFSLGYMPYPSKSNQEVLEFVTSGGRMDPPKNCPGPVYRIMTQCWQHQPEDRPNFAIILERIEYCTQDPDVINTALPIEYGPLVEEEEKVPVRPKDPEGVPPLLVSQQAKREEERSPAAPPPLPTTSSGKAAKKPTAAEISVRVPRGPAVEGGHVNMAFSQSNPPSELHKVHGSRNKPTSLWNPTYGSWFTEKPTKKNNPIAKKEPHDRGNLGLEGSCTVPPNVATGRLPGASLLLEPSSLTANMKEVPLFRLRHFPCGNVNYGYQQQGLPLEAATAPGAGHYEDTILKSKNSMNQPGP

[12] = molecular target: Macrophage-stimulating protein receptor (Homo sapiens, UniProt Q04912); assay: Inhibition of RON (unknown origin) by enzymatic assay
Macrophage-stimulating protein receptor, sequence (Q04912 25-304 limits assumed): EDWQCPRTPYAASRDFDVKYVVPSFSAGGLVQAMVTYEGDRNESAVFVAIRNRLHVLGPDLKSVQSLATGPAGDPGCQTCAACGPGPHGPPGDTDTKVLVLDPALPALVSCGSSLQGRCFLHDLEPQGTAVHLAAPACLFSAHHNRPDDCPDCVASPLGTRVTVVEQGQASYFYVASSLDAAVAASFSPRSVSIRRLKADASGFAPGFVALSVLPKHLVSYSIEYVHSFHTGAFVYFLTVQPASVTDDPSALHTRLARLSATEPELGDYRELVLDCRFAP
Macrophage-stimulating protein receptor, sequence (Q04912 310-1400 limits assumed): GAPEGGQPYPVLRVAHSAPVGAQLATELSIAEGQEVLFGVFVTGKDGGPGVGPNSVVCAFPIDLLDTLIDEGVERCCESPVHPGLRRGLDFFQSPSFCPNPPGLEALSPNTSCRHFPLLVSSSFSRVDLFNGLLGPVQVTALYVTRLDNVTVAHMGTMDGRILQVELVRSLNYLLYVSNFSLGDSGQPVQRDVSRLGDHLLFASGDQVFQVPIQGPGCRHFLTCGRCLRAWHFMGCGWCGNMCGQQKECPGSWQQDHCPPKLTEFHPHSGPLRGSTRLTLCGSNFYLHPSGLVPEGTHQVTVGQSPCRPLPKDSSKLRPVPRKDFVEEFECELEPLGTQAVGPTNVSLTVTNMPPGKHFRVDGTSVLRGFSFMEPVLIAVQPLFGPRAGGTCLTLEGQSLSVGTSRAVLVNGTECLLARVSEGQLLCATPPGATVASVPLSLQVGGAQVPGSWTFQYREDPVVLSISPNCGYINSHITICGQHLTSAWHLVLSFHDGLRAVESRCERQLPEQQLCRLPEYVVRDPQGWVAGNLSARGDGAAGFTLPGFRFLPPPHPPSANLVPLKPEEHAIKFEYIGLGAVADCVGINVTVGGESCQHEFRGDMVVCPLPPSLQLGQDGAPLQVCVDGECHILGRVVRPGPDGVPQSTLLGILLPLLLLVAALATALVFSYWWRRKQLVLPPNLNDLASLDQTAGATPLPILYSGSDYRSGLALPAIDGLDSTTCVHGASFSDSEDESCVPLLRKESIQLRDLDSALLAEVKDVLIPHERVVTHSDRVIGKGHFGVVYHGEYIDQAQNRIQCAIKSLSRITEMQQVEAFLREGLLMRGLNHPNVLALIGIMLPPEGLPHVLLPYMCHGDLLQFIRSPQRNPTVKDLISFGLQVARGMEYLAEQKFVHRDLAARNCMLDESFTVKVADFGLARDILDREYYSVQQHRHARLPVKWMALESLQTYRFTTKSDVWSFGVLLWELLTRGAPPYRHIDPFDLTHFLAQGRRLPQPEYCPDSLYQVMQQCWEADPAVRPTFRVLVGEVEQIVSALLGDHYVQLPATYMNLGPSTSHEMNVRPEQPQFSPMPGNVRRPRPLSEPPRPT

HepG2 [13] = assay: Induction of apoptosis in human HepG2 cells assessed as abnormal cell morphology at 0.24 uM by inverted microscopy microscopy; type: functional, cell-based
A549 [14] = assay: Antiproliferative activity against human A549 cells assessed as cell growth inhibition measured after 72 hrs by MTT assay

Compound	IC50 (A549 [1]) [µM]	IC50 (HepG2 [2]) [µM]	IC50 (MCF7) [µM]	also measured
COc1ccc(-n2cc(C(=O)Nc3ccc(Oc4ccnc5[nH]ccc45)cc3)c(=O)c3ccccc32)cc1	4.98	5.95	4.65	–
O=C(Nc1ccc(Oc2ccnc3[nH]ccc23)cc1)c1cn(-c2ccc(F)c(Cl)c2)c2ccccc2c1=O	4.81	1.12	1.51	–
Cn1ccc2c(Oc3ccc(NC(=O)c4cn(-c5ccc(Br)cc5F)c5ccccc5c4=O)cc3F)ccnc21	1.52	2.51	0.42	–
O=C(Nc1ccc(Oc2ccnc3[nH]ccc23)c(F)c1)c1cn(-c2ccc(F)c(Cl)c2)c2ccccc2c1=O	2.15	3.39	–	–
Cn1ccc2c(Oc3ccc(NC(=O)c4cn(-c5ccc(Br)cc5)c5ccccc5c4=O)cc3F)ccnc21	1.39	1.26	1.83	–
Cn1ccc2c(Oc3ccc(NC(=O)c4cn(-c5ccc(F)c(Cl)c5)c5ccccc5c4=O)cc3F)ccnc21	1.21	–	–	–
O=C(Nc1ccc(Oc2ccnc3[nH]ccc23)c(F)c1)c1cn(-c2ccc(Br)cc2F)c2ccccc2c1=O	1.15	2.2	1.39	–
O=C(Nc1ccc(Oc2ccnc3[nH]ccc23)c(F)c1)c1cn(-c2ccc(F)cc2)c2ccccc2c1=O	0.29	0.27	0.52	Activity (HepG2 [4]): Active; Activity (HepG2 [5]): Active; Activity (HepG2 [6]): Active; Activity (HepG2 [7]): Active; IC50 [8]: 1.31 µM; IC50 [9]: > 10 µM; IC50 [10]: > 10 µM; IC50 [11]: > 10 µM; IC50 [12]: > 10 µM; Activity (HepG2 [13]): Active; inhibition (A549 [14]): Dose-dependent effect
O=C(Nc1ccc(Oc2ccnc3[nH]ccc23)cc1)c1cn(-c2ccc(C(F)(F)F)cc2Cl)c2ccccc2c1=O	2.35	–	3.57	–
O=C(Nc1ccc(Oc2ccnc3[nH]ccc23)cc1)c1cn(-c2ccccc2)c2ccccc2c1=O	1.03	2.25	3.56	–
Cn1ccc2c(Oc3ccc(NC(=O)c4cn(-c5ccc(F)cc5)c5ccccc5c4=O)cc3F)ccnc21	1.46	2.01	–	–
O=C(Nc1ccc(Oc2ccnc3[nH]ccc23)cc1)c1cn(-c2ccc(Cl)cc2)c2ccccc2c1=O	0.65	0.25	1.59	–
Cn1ccc2c(Oc3ccc(NC(=O)c4cn(-c5ccc(Cl)cc5)c5ccccc5c4=O)cc3F)ccnc21	0.25	0.29	2.12	IC50 [3]: 0.087 µM

Further molecules by falling IC50 (A549 [1]), results first:

IC50 (A549 [1]) [µM]	IC50 (HepG2 [2]) [µM]	IC50 (MCF7) [µM]	Compound	also measured
4.15	6.53	6.62	COc1ccc(-n2cc(C(=O)Nc3ccc(Oc4ccnc5[nH]ccc45)c(F)c3)c(=O)c3ccccc32)cc1	–
3.21	3.75	6.72	COc1ccc(-n2cc(C(=O)Nc3ccc(Oc4ccnc5c4ccn5C)c(F)c3)c(=O)c3ccccc32)cc1	–
2.05	–	0.19	Cn1ccc2c(Oc3ccc(NC(=O)c4cn(-c5ccc(C(F)(F)F)cc5Cl)c5ccccc5c4=O)cc3F)ccnc21	–
1.72	2.17	2.79	Cn1ccc2c(Oc3ccc(NC(=O)c4cn(-c5ccccc5)c5ccccc5c4=O)cc3F)ccnc21	–
1.62	1.84	1.12	O=C(Nc1ccc(Oc2ccnc3[nH]ccc23)c(F)c1)c1cn(-c2ccc(C(F)(F)F)cc2Cl)c2ccccc2c1=O	–
1.33	0.79	–	O=C(Nc1ccc(Oc2ccnc3[nH]ccc23)cc1)c1cn(-c2ccc(Br)cc2F)c2ccccc2c1=O	–
0.95	0.71	0.65	O=C(Nc1ccc(Oc2ccnc3[nH]ccc23)c(F)c1)c1cn(-c2ccc(Br)cc2)c2ccccc2c1=O	–
0.48	0.35	0.73	COc1cc2c(Oc3ccc(NC(=O)C4(C(=O)Nc5ccc(F)cc5)CC4)cc3F)ccnc2cc1OCCCN1CCOCC1 [FORETINIB]	–
0.45	0.22	0.61	O=C(Nc1ccc(Oc2ccnc3[nH]ccc23)cc1)c1cn(-c2ccc(Br)cc2)c2ccccc2c1=O	IC50 [3]: 0.01 µM
0.42	0.76	0.43	O=C(Nc1ccc(Oc2ccnc3[nH]ccc23)c(F)c1)c1cn(-c2ccccc2)c2ccccc2c1=O	–
0.39	0.45	0.72	O=C(Nc1ccc(Oc2ccnc3[nH]ccc23)cc1)c1cn(-c2ccc(F)cc2)c2ccccc2c1=O	–
0.32	0.38	–	O=C(Nc1ccc(Oc2ccnc3[nH]ccc23)c(F)c1)c1cn(-c2ccc(Cl)cc2)c2ccccc2c1=O	IC50 [3]: 0.041 µM
